Measurements taken from ChEMBL document CHEMBL4825752, “1, 2-Dihexadecanoyl-sn-glycero-3-phosphoethanolamin (DPPE), doxorubicin and folic acid conjugated micelles for cancer management in tumor bearing BALB/c mice” (Bioorg Med Chem Lett, 2021).

Key:
[1] = AUC(0 to t) in single iv dosed BALB/c mouse by HPLC analysis; format: ADME, organism-based; conditions: in vivo
[2] = AUC(0 to infinity) in single iv dosed BALB/c mouse by HPLC analysis; format: ADME, organism-based; set-up: time infinity, route intravenous; conditions: in vivo
[3] = AUMC(0 to t) in single iv dosed BALB/c mouse by HPLC analysis; format: ADME, organism-based; conditions: in vivo
[4] = AUMC(0 to infinity) in single iv dosed BALB/c mouse by HPLC analysis; format: ADME, organism-based; conditions: in vivo
[5] = Half life in single iv dosed BALB/c mouse by HPLC analysis; format: ADME, organism-based; conditions: in vivo
[6] = Mean residence time in single iv dosed BALB/c mouse by HPLC analysis; format: ADME, organism-based; conditions: in vivo
[7] = Biodistribution in liver of iv dosed tumor bearing BALB/c mouse; format: ADME, organism-based; conditions: in vivo
[8] = Biodistribution in kidney of iv dosed tumor bearing BALB/c mouse; format: ADME, organism-based; conditions: in vivo
[9] = Biodistribution in heart of iv dosed tumor bearing BALB/c mouse; format: ADME, organism-based; conditions: in vivo
[10] = Biodistribution in spleen of iv dosed tumor bearing BALB/c mouse; format: ADME, organism-based; conditions: in vivo
[11] = Toxicity in tumor bearing BABL/c mouse assessed as median survival time at 5 mg/kg, iv (reference value: 7.5 day); format: organism-based; conditions: in vivo, 180 h
[12] = Toxicity in rat liver assessed as microvesicular steatosis by histopathological analysis; format: tissue-based
[13] = Toxicity in rat liver assessed as hepatocytes degeneration by histopathological analysis
[14] = Biodistribution in blood of single iv dosed tumor bearing BALB/c mouse; format: ADME, organism-based; conditions: in vivo
[15] = Toxicity in rat heart assessed as myocardial cell degeneration by histopathological analysis; format: tissue-based
[16] = Toxicity in rat heart assessed as myocardial necrosis by histopathological analysis; format: tissue-based; conditions: in vivo
[17] = Toxicity in rat heart assessed as haemorrhage by histopathological analysis; format: tissue-based; conditions: in vivo
[18] = Toxicity in rat skeletal muscle assessed as widening of endomysium by histopathological analysis; format: tissue-based, Skeletal muscle tissue; conditions: in vivo
[19] = Toxicity in rat skeletal muscle assessed as infiltration of inflammatory cells by histopathological analysis; format: tissue-based, Skeletal muscle tissue
[20] = Toxicity in rat kidney assessed as epithelial degeneration by histopathological analysis; format: tissue-based; conditions: in vivo
[21] = Toxicity in rat kidney assessed as tubular degeneration by histopathological analysis; format: tissue-based; conditions: in vivo
[22] = Toxicity in rat kidney assessed as tubular necrosis by histopathological analysis; format: tissue-based; conditions: in vivo
[23] = Toxicity in rat kidney assessed as glomerular necrosis by histopathological analysis; format: tissue-based; conditions: in vivo
[24] = Toxicity in rat kidney assessed as congestion of glomeruli blood vessels by histopathological analysis; format: tissue-based; conditions: in vivo

Structure (SMILES): COc1cccc2c1C(=O)c1c(O)c3c(c(O)c1C2=O)C[C@@](O)(C(=O)CO)C[C@@H]3O[C@H]1C[C@H](N)[C@H](O)[C@H](C)O1 [DOXORUBICIN]
- AUC(0-t) [1]: 11400 ng·h/mL
- AUC(0-inf) [2]: 10400 ng·h/mL
- AUMCt [3]: 29.45 ug/ml.hr^2
- AUMC [4]: 30.25 ug/ml.hr^2
- t1/2 [5]: 2.09 h
- MRT [6]: 3.1 h
- Drug uptake [7]: Active
- Drug uptake [8]: Active
- Drug uptake [9]: Active
- Drug uptake [10]: Active
- Activity [11]: Non-Toxic
- MST [11]: 40 days
- Activity [12]: Toxic
- Activity [13]: Toxic
- Drug uptake [14]: Active
- Activity [15]: Toxic
- Activity [16]: Toxic
- Activity [17]: Toxic
- Activity [18]: Toxic
- Activity [19]: Toxic
- Activity [20]: Toxic
- Activity [21]: Toxic
- Activity [22]: Toxic
- Activity [23]: Toxic
- Activity [24]: Toxic
